Reference: patent US11643421B2, “Process for the preparation of tricyclic PI3K inhibitor compounds and methods for using the same for the treatment of cancer” (priority 2015, dated 2023)

Experiment: In vivo pharmacokinetics IV and PO
Set-up: species or system female CD-1 mice
Details: Mouse
Description: The hepatocyte stability of compound IIIat was evaluated across preclinical species. Certain in vivo pharmacokinetic parameters were also evaluated. […] Male Sprague-Dawley rats, female CD-1 mice, male cynomolgus monkeys and beagle dogs were dosed intravenously with 1 mg/kg of compound IIIat prepared in 60% PEG400/10% Ethanol. Compound IIIat was administered orally (PO) at the indicated dose in 0.5% methylcellulose with 0.2% Tween 80 (MCT).

CC1(C)OCCn2c1nc1c(N3CCOCC3)nc(-c3cnc(N)nc3)nc12 [GDC-0084, 5-(6,6-dimethyl-4-morpholino-8,9-dihydro-6H-[1,4]oxazino[3,4-e]purin-2-yl)pyrimidin-2-amine]
In vivo Cl (IV 1 mg/kg): 17 mL/min/kg | AUC (PO 25 mg/kg in MCT): 47 μm·h | Cmax (PO 25 mg/kg in MCT): 4.6 μm | F % (PO 25 mg/kg in MCT): 75%
